Test results from BindingDB's records for doi:10.1016/j.ejmech.2019.05.010 (Queensland University of Technology, 2019).
pEC50: −log10 of the molar value.

Biological target: Genome polyprotein (Dengue virus type 2 (strain Thailand/16681/1984), UniProt P29990)
Test: Inhibition of DENV2 NS2B-NS3 serine protease expressed in human Huh7 cells after 3 days by luciferase reporter gene assay

With CC(=O)O[C@H]1CC(C)(C)C(=C=C/C(C)=C/C=C/C=C/C=C(C)/C=C2C=C(/C=C/[C@@]34O[C@]3(C)C[C@@H](O)CC4(C)C)C(=O)O/2)[C@](C)(O)C1 as the compound, how does the pEC50 read?
Its pEC50 is 5.35.
